Patent US20120245344A1 (NIPPON CHEMIPHAR CO., LTD., priority 2009, published 2012)

target: T1, human GPR119 (Homo sapiens, UniProt Q8TDV5); assay: Measurement of intracellular cAMP in stable cell line expressing human GPR119 (GPR119 agonist effect); format: cell-based; conditions: increase of intracellular cAMP, Flp-in T-Rex-293 cells expressing human GPR119, 37° C. for 30 minutes
T1 construct: expressed in transfected cells; host or cells: Flp-in T-Rex-293 cells (Invitrogen #R78007), plasmid pcDNA5/FRT/TO, expression induced with tetracycline
T1 sequence (Q8TDV5 1-335): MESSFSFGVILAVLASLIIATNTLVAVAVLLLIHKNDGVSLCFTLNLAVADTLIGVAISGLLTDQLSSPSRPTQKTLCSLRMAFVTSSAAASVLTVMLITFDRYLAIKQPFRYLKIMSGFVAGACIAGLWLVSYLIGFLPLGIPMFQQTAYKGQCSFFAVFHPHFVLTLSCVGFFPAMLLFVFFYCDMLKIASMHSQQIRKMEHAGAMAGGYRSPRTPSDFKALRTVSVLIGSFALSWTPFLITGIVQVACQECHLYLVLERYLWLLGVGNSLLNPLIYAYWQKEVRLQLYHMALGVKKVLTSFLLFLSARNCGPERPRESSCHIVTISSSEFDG
Source text: The GPR119 agonist effect is studied by measuring the effect of an analyte on increase of intracellular amount of cAMP in human GPR119 introduced cells. The testing method is described below.
Human GPR119 gene (NM 178471) is purchased from ATCC (ATCC No. 10807349), and is amplyfied according to PCR to form BamHI site at 5′ side and Apa I site at 3′ side. The primers are […] (sequence No. 1) and […] (sequence No. 2). The PCR conditions are described below.
The double-stranded DNA is thermally denatured using a DNA polymerase (KOD-Plus-Ver. 2; TOYOBO #KOD-211) at 98° C. for 10 seconds in one cycle. The denatured single-stranded DNA is annealed with the primers at 55° C. for 30 seconds. The DNA is subjected to an extension reaction at 68° C. for 1 minute and 15 seconds. The above-mentioned steps are repeated in 35 cycles. The PCR product is inserted into pcDNA5/FRT/TO (Invitrogen #V6520-20) plasmid. Flp-in T-Rex-293 cells (Invitorogen #R78007) are transfected with the obtained plasmid. The method of transfection is conducted in accordance with the protocol of the product.
(§1) The stable cell line expressing human GPR119 prepared in the above-mentioned method is plated on a 96-well plate at the concentration of 2,500 cells/well using Dulbecco's Modified Eagle Medium (DMEM) containing 10% fetal bovine serum (FBS). Twenty-four hours after plating, tetracyclin (Invitrogen #Q10019) is added at the final concentration of 20 ng/mL to induce hGPR119 gene expression. Twenty-four hours after, the medium is removed, and the cells are stimulated with an assay buffer (0.5 mM IBMX PBS (−)) containing the test compound at 37° C. for 30 minutes. The amount of the intracellular cAMP is measured using a commercially available kit (HitHunter™ cAMP XS+Assay: GE Healthcare #90007503) and a reader (FLUOstar Optima: BMG LABTECH). The test compound is dissolved in 100% DMSO, and added at the final concentration of 1%.
Human GPR119 gene (NM 178471) was purchased from ATCC (ATCC No. 10807349), and is amplyfied according to PCR to form BamHI site at 5′ side and Apa I site at 3′ side. The primers were […] (sequence No. 1) and […] (sequence No. 2). The PCR conditions are described below. The double-stranded DNA was thermally denatured using a DNA polymerase (KOD-Plus-Ver. 2; TOYOBO #KOD-211) at 98° C. for 10 seconds in one cycle. The denatured single-stranded DNA was annealed with the primers at 55° C. for 30 seconds. The DNA was subjected to an extension reaction at 68° C. for 1 minute and 15 seconds. The above-mentioned steps were repeated in 35 cycles. The PCR product was inserted into pcDNA5/FRT/TO (Invitrogen #V6520-20) plasmid. Flp-in T-Rex-293 cells (Invitorogen #R78007) were transfected with the obtained plasmid. The method of transfection was conducted in accordance with the protocol of the product.
as §1, with “method was” for “method is”, “#Q10019) was” for “#Q10019) is”, “medium was” for “medium is”, “cells were” for “cells are”, “cAMP was” for “cAMP is”, “compound was” for “compound is”
The examination was performed by the method similar to Example 87 Pharmacological experiment 1-(1), -(2).

SMILES | EC50 [nM]
CC(C)(C)OC(=O)N1CCC(c2ccc(Cn3ccc4cc(S(C)(=O)=O)cc(Cl)c43)nc2)CC1 [Example 27, tert-Butyl 4-[2-(7-chloro-5-methanesulfonylindol-1-ylmethyl)pyridin-5-yl]piperidine-1-carboxylate] | 13.9
Cc1nc(S(C)(=O)=O)cc2ccn(Cc3ccc(C4CCN(C(=O)OC(C)(C)C)CC4)cn3)c12 [Example 28, tert-Butyl 4-[2-(5-methanesulfonyl-7-methyl-1H-pyrrolo[2,3-c]pyridin-1-ylmethyl)pyridin-5-yl]piperidine-1-carboxylate] | 82.1
CC(C)(C)OC(=O)N1CCC(c2ccc(Cn3ccc4c(F)c(S(C)(=O)=O)c(F)cc43)nc2)CC1 [Example 57, tert-Butyl 4-[2-(4,6-difluoro-5-methanesulfonylindol-1-ylmethyl)pyridin-5-yl]piperidine-1-carboxylate] | 17.4
COC(=O)c1ccc2c(ccn2Cc2ncc(C3CCN(C(=O)OC(C)(C)C)CC3)cc2F)c1 [Example 71, tert-Butyl 4-[3-fluoro-2-[5-(methoxycarbonyl)indol-1-ylmethyl)pyridin-5-yl]piperidine-1-carboxylate] | 191
CC(C)OC(=O)N1CCC(c2cnc(Cn3ccc4cc(-n5cnnn5)cc(F)c43)c(F)c2)CC1 [Example 83, Isopropyl 4-[3-fluoro-2-[7-fluoro-5-(tetrazol-1-yl)indol-1-ylmethyl]pyridin-5-yl]piperidine-1-carboxylate] | 10.4
CC(C)(C)OC(=O)N1CCC(c2ccc(Cn3ccc4cc(-n5cnnn5)ccc43)nc2)CC1 [Example 20, tert-Butyl 4-[2-[5-(tetrazol-1-yl)indol-1-ylmethyl]pyridin-5-yl]piperidine-1-carboxylate] | 18.5
CC(C)(C)OC(=O)N1CCC(c2ccc(Cn3ccc4c(F)c(S(C)(=O)=O)cc(F)c43)nc2)CC1 [Example 42, tert-Butyl 4-[2-(4,7-difluoro-5-methanesulfonylindol-1-ylmethyl)pyridin-5-yl]piperidine-1-carboxylate] | 22.9
Cc1cc(C2CCN(C(=O)OC(C)(C)C)CC2)cnc1Cn1ccc2cc(-n3cncn3)ccc21 [Example 58, tert-Butyl 4-[3-methyl-2-[5-(1,2,4-triazol-1-yl)indol-1-ylmethyl]pyridin-5-yl]piperidine-1-carboxylate] | 13.1
C[C@H]1CC(c2ccc(Cn3ccc4cc(S(C)(=O)=O)ccc43)nc2)C[C@H](C)N1C(=O)OC(C)(C)C (stereo partly drawn) [Example 69, tert-Butyl (2S,6S)-2,6-dimethyl-4-[2-(5-methanesulfonylindol-1-ylmethyl)pyridin-5-yl]piperidine-1-carboxylate] | 17.5
CCC1CN(C(=O)OC(C)(C)C)CC=C1c1ccc(Cn2ccc3cc(S(C)(=O)=O)ccc32)nc1 (stereo not drawn) [Example 73, tert-Butyl 3-ethyl-4-[2-(5-methanesulfonylindol-1-ylmethyl)pyridin-5-yl]-3,6-dihydro-2H-pyridine-1-carboxylate] | 32.4
Cc1cc(S(C)(=O)=O)cc2ccn(Cc3ccc(C4CCN(C(=O)OC(C)(C)C)CC4)cn3)c12 [Example 26, tert-Butyl 4-[2-(5-methanesulfonyl-7-methylindol-1-ylmethyl)pyridin-5-yl]piperidine-1-carboxylate] | 59.3
CC1CN(C(=O)OC(C)(C)C)CC=C1c1ccc(Cn2ccc3cc(S(C)(=O)=O)ccc32)nc1 (stereo not drawn) [Example 43, tert-Butyl 4-[2-(5-methanesulfonylindol-1-ylmethyl)pyridin-5-yl]-3-methyl-3,6-dihydro-2H-pyridine-1-carboxylate] | 58.7
CCc1cnc(N2CCC(c3ccc(Cn4ccc5cc(S(C)(=O)=O)c(F)cc54)nc3)CC2)nc1 [Example 32, 5-Ethyl-2-[4-[2-(6-fluoro-5-methanesulfonylindol-1-ylmethyl)pyridin-5-yl]piperidin-1-yl]pyrimidine] | 52
CC(C)(C)OC(=O)N1CCC(c2ccc(Cn3cc4cc(S(C)(=O)=O)ccc4n3)nc2)CC1 [Example 22, tert-Butyl 4-[2-(5-methanesulfonylindazol-2-ylmethyl)pyridin-5-yl]piperidine-1-carboxylate] | 458
CC(C)(C)OC(=O)N1CCC(c2cnc(Cn3ccc4cc(S(C)(=O)=O)ccc43)c(Cl)c2)CC1 [Example 14, tert-Butyl 4-[3-chloro-2-(5-methanesulfonylindol-1-ylmethyl)pyridin-5-yl]piperidine-1-carboxylate] | 9.5
C[C@H]1C=C(c2ccc(Cn3ccc4cc(S(C)(=O)=O)ccc43)nc2)C[C@H](C)N1C(=O)OC(C)(C)C [Example 68, tert-Butyl (2S,6S)-2,6-dimethyl-4-[2-(5-methanesulfonylindol-1-ylmethyl)pyridin-5-yl]-3,6-dihydro-2H-pyridine-1-carboxylate] | 96.8
CC(C)(C)OC(=O)N1CCCC(c2ccc(Cn3ccc4cc(S(C)(=O)=O)ccc43)nc2)CC1 (stereo not drawn) [Example 51] | 115
CC(C)(C)OC(=O)N1CCC(c2ccc(Cn3ccc4cc(-n5cnnn5)cc(F)c43)nc2)CC1 [Example 41, tert-Butyl 4-[2-[7-fluoro-5-(tetrazol-1-yl)indol-1-ylmethyl]pyridin-5-yl]piperidine-1-carboxylate] | 3.7
CCc1cnc(N2CCC(c3ccc(Cn4ccc5cc(S(C)(=O)=O)ccc54)nc3)CC2)nc1 [Example 30, 5-Ethyl-2-[4-[2-(5-methanesulfonylindol-1-ylmethyl)pyridin-5-yl]piperidin-1-yl]pyrimidine] | 11.7
CC(C)(C)OC(=O)N1CC=C(c2ccc(Cn3ccc4cc(S(C)(=O)=O)ccc43)nc2)C(C)(C)C1 [Example 45, tert-Butyl 3,3-dimethyl-4-[2-(5-methanesulfonylindol-1-ylmethyl)pyridin-5-yl]-3,6-dihydro-2H-pyridine-1-carboxylate] | 186
CC(C)(C)OC(=O)N1CCC(c2ccc(Cn3ccc4cc(S(C)(=O)=O)ccc43)nc2)C1 (stereo not drawn) [Example 50, tert-Butyl 3-[2-(5-methanesulfonylindol-1-ylmethyl)pyridin-5-yl]pyrrolidine-1-carboxylate] | 375
CC(C)OC(=O)N1CC=C(c2ccc(Cn3ccc4cc(-n5cnnn5)cc(F)c43)nc2)C(C)C1 (stereo not drawn) [Example 67, Isopropyl 4-[2-[7-fluoro-5-(tetrazol-1-yl)indol-1-ylmethyl]pyridin-5-yl]-3-methyl-3,6-dihydro-2H-pyridine-1-carboxylate] | 45.9

same assay, conditions: statement in words on Tables 10 to 13

SMILES | GPR119 agonist effect (in words)
CC(C)OC(=O)N1CCC(c2cnc(Cn3ccc4cc(-n5cnnn5)cc(F)c43)c(F)c2)CC1 [Example 83, Isopropyl 4-[3-fluoro-2-[7-fluoro-5-(tetrazol-1-yl)indol-1-ylmethyl]pyridin-5-yl]piperidine-1-carboxylate] | excellent GPR119 agonist effect
CC(C)(C)OC(=O)N1CCC(c2ccc(Cn3ccc4cc(-n5cnnn5)cc(F)c43)nc2)CC1 [Example 41, tert-Butyl 4-[2-[7-fluoro-5-(tetrazol-1-yl)indol-1-ylmethyl]pyridin-5-yl]piperidine-1-carboxylate] | excellent GPR119 agonist effect
